Measured values as given in the NIST ThermoML archive (doi:10.1016/j.tca.2016.09.005).
Numbers after ± are expanded uncertainties.

What was measured:
[1] = xn = mol fraction of the nth substance listed; conditions: 100 kPa, Liquid, x1 = 1; for mass density: Vibrating tube method; for speed of sound: Frequency=3 MHz, Sing-around technique in a fixed-path interferometer
[2] = Liquid; for speed of sound / mass density: 100 kPa; for speed of sound: Frequency=3 MHz, Sing-around technique in a fixed-path interferometer; for mass density: Vibrating tube method; for vapor or sublimation pressure: Closed cell (Static) method
[3] = refractive index (Na D-line) (dimensionless); conditions: 293.15 K; 101.33 kPa; Liquid; Standard Abbe refractometry

O [water] + OCCCO
[1]
Conditions	mass density [kg/m3]	speed of sound [m/s]
283.15 K	999.68 ± 0.9	–
313.15 K	–	1529.2 ± 1.7

CO [methanol] + OCCCO
[1]
Conditions	mass density [kg/m3]	speed of sound [m/s]
283.15 K	800.67 ± 0.91	1153.3 ± 1.7
293.15 K	791.28 ± 0.91	1119.6 ± 1.7
303.15 K	781.84 ± 0.91	1086.6 ± 1.7
313.15 K	772.3 ± 0.91	1054.2 ± 1.7

CO [methanol]
[2]
Conditions	mass density [kg/m3]	speed of sound [m/s]
283.15 K	800.67 ± 0.91	1153.3 ± 1.7
293.15 K	791.28 ± 0.91	1119.6 ± 1.7
303.15 K	781.84 ± 0.91	1086.6 ± 1.7
313.15 K	772.3 ± 0.91	1054.2 ± 1.7

Conditions	refractive index
[3]	1.3285 ± 0.0009

OCCCO [propan-1,3-diol]
[2]
Conditions	mass density [kg/m3]	speed of sound [m/s]
283.15 K	1058.85 ± 1.3	1659.5 ± 2.6
293.15 K	1052.61 ± 1.2	1636.3 ± 2.6
303.15 K	1046.36 ± 1.2	1613.6 ± 2.6
313.15 K	1040.07 ± 1.2	1591.1 ± 2.6

Conditions	refractive index
[3]	1.4393 ± 0.001

CCO [ethanol] + OCCCO
[1]
Conditions	mass density [kg/m3]	speed of sound [m/s]
283.15 K	798.22 ± 0.93	1196.8 ± 1.9
293.15 K	789.7 ± 0.93	1162.3 ± 1.9
303.15 K	781.09 ± 0.93	1128.2 ± 1.9
313.15 K	772.34 ± 0.93	1094.6 ± 1.9

CCO [ethanol]
[2]
Conditions	mass density [kg/m3]	speed of sound [m/s]
283.15 K	798.22 ± 0.93	1196.8 ± 1.9
293.15 K	789.7 ± 0.93	1162.3 ± 1.9
303.15 K	781.09 ± 0.93	1128.2 ± 1.9
313.15 K	772.34 ± 0.93	1094.6 ± 1.9

Conditions	refractive index
[3]	1.362 ± 0.001

O [water]
[2]
Conditions	vapor or sublimation pressure [kPa]
273.15 K	0.593 ± 0.019
283.15 K	1.21 ± 0.038
293.15 K	2.328 ± 0.071
303.15 K	4.251 ± 0.13
313.15 K	7.411 ± 0.22
323.15 K	12.4 ± 0.37
333.15 K	20 ± 0.6
343.15 K	31.21 ± 0.94
353.15 K	47.3 ± 1.4
363.15 K	69.77 ± 2.1

Conditions	refractive index
[3]	1.333 ± 0.0009
